Measurements: patent US20240034735A1, “NOVEL COMPOUNDS” (AC Immune SA, priority 2022, published 2024)
Like-named read-outs stand apart in the source and are kept apart here.

System: NLRP3 inflammasome pathway
Experiment: NLRP3 inflammasome pathway activation assay (IL-1β release, HTRF)
Assay type: cell-based, Human
Conditions: for IC50: IL-1β release, PMA-differentiated, LPS-primed cells; for inhibition of IL-1 beta release compared to the equivalent compounds in which Z1=C and Z2=N: human monocyte-like cells, MSU or Nigericin as activators, 8 vs 13, 11 vs 12
Procedure: The following assays were used to determine the inhibitory activity of test compounds on the NLRP3 inflammasome pathway using common stimuli Nigericin (Invivogen) or monosodium urate crystals (MSU) (Invivogen).
Human monocyte-like cells were seeded at 25000 per well in a 384-well plate and were differentiated overnight into macrophages with 10 ng/ml PMA (Phorbol Myristate Acetate). The following day, medium containing 10 ng/ml LPS (Lipopolysaccharide) was added.
For IL-1β quantification, supernatants were analyzed using HTRF kit according to the manufacturer's instructions (Cisbio 62HIL1BPEH), Briefly, in a 384-well ProxiPlate™ microplate, 8 μl of sample was mixed, with 5 μl of Anti-IL1β Cryptate antibody (40×) and Anti-IL1β XL antibody (40×). Then, incubated overnight at RT. Reading was done using an EnVision Reader (PerkinElmer).

[1] = Homo sapiens, stimulation with MSU 200 μg/ml for 3 h, read-out: IC50 Human monocyte-like cells MSU
[2] = Homo sapiens, stimulation with Nigericin 3.75 μM for 3 h, read-out: IC50 Human monocyte-like cells Nigericin
[3] = stimulation with MSU 200 μg/ml for 3 h, read-out: IC50 Human monocyte-like cells MSU
[4] = stimulation with Nigericin 3.75 μM for 3 h, read-out: IC50 Human monocyte-like cells Nigericin

`CN1CCC[C@@H](Nc2nnc(-c3ccc(OC(F)F)cc3)n3cccc23)C1` [Example 3, (R)-4-(4-(difluoromethoxy)phenyl)-N-(1-methylpiperidin-3-yl)pyrrolo[1,2-d][1,2,4]triazin-1-amine] gave an IC50 [1] of 5 to 20 nM.
For `CN1CCC[C@@H](Nc2nnc(-c3ccc(C(F)(F)F)cc3O)n3nccc23)C1` [Example 2, (R)-2-(4-((1-methylpiperidin-3-yl)amino)pyrazolo[1,5-d][1,2,4]triazin-7-yl)-5-(trifluoromethyl)phenol], the IC50 [1] was 5 to 20 nM.
`C[C@]1(O)C[C@@H](Nc2nnc(-c3ccc(C(F)(F)F)cc3O)n3ccc(F)c23)C1` [Example 10, 2-(8-Fluoro-1-(((1s,3s)-3-hydroxy-3-methylcyclobutyl)amino)pyrrolo[1,2-d][1,2,4]triazin-4-yl)-5-(trifluoromethyl)phenol] gave an IC50 [1] of under 5 nM.
With `C[C@]1(O)C[C@@H](Nc2nnc(-c3ccc(C(F)(F)F)cc3O)c3cccn23)C1` [Example 11, 2-(4-(((1s,3s)-3-hydroxy-3-methylcyclobutyl)-amino)pyrrolo[1,2-d][1,2,4]triazin-1-yl)-5-(trifluoromethyl)phenol] the IC50 [1] was under 5 nM, the IC50 [2] was 5 to 20 nM and the “inhibition of IL-1 beta release compared to the equivalent compounds in which Z1=C and Z2=N” value was “significantly increased inhibition”.
With `CN1CC[C@@H](Nc2nnc(-c3ccc(Cl)cc3O)n3ccnc23)C1` [Example 9] the IC50 [1] was 20 to 100 nM.
`CN1CCC[C@@H](Nc2nnc(-c3ccc(OC(F)(F)F)cc3)n3cccc23)C1` [Example 4, (R)-N-(1-methylpiperidin-3-yl)-4-(4-(trifluoromethoxy)phenyl)pyrrolo[1,2-d][1,2,4]triazin-1-amine] gave an IC50 [1] of 20 to 100 nM and an IC50 [2] of 20 to 100 nM.
For `CC1(O)CC(Oc2nnc(-c3ccc(C(F)(F)F)cc3O)n3cccc23)C1` (centres unmarked) [Example 8, 2-(1-((1s,3s)-3-hydroxy-3-methylcyclobutoxy)pyrrolo[1,2-d][1,2,4]triazin-4-yl)-5-(trifluoromethyl)phenol], the IC50 [1] was under 5 nM, the IC50 [2] was 5 to 20 nM and the “inhibition of IL-1 beta release compared to the equivalent compounds in which Z1=C and Z2=N” value was “significantly increased inhibition”.
With `CN1CCC[C@@H](Nc2nnc(-c3ccc(Cl)cc3)n3ccnc23)C1` [Example 6, 5-(4-Chlorophenyl)-N-[(3R)-1-methyl-3-piperidyl]imidazo[1,2-d][1,2,4]triazin-8-amine] the IC50 [1] was 20 to 100 nM.
`CN1CCC[C@@H](Nc2nnc(-c3ccc(C(F)(F)F)cc3O)n3cccc23)C1` [Example 1, (R)-2-(1-((1-methylpiperidin-3-yl)amino)pyrrolo[1,2-d][1,2,4]triazin-4-yl)-5-(trifluoromethyl)phenol] gave an IC50 [1] of under 5 nM and an IC50 [2] of under 5 nM.
Molecule `C[C@]1(O)C[C@@H](Oc2nnc(-c3ccc(C(F)(F)F)cc3O)c3cccn23)C1` [Example 13, 2-(4-((1s,3s)-3-Hydroxy-3-methylcyclobutoxy)pyrrolo[1,2-d][1,2,4]triazin-1-yl)-5-(trifluoromethyl)phenol] has an IC50 [3] of 5 to 20 nM and an IC50 [4] of 20 to 100 nM.
`CCN1CCC[C@@H](Nc2nnc(-c3ccc(Cl)cc3O)n3ccnc23)C1` [Example 15] was tested, and the IC50 [1] was under 5 nM.
Molecule `C[C@]1(O)C[C@@H](Nc2nnc(-c3ccc(C(F)(F)F)cc3O)n3cccc23)C1` [Example 12, 2-(1-(((1s,3s)-3-hydroxy-3-methylcyclobutyl)amino)pyrrolo[1,2-d][1,2,4]triazin-4-yl)-5-(trifluoromethyl)phenol] has an IC50 [3] of 5 to 20 nM and an IC50 [4] of 20 to 100 nM.
